# Laboratory results published in patent US8324186B2, “4-azetidinyl-1-heteroatom linked-cyclohexane antagonists of CCR2” (Janssen Pharmaceutica N.V., priority 2009, dated 2012).
# Target: T1, CCR2 (Homo sapiens, UniProt P41597)
# T1 construct: host or cells: THP-1 human monocytic cells
# Experiment: MCP-1 Receptor Binding Assay in THP-1 Cells (125I-MCP-1 displacement)
# Details: 0.5 nM 125I labeled MCP-1, 2 hours at 30° C., read-out: CCR2 Binding, Inhibition of MCP-1 Binding IC50
# Description: Compounds of the invention were subjected to various representative biological tests. The results of these tests are intended to illustrate the invention in a non-limiting fashion. MCP-1 Receptor Binding Assay in THP-1 Cells
# Human monocytic cell line THP-1 cells were obtained from American Type Culture Collection (Manassas, Va., USA). The THP-1 cells were grown in RPMI-1640 (RPMI: Roswell Park Memorial Institute Medium-cell culture growth media) supplemented with 10% fetal bovine serum in a humidified 5% CO2 atmosphere at 37° C. The cell density was maintained […].
# THP-1 (cells were incubated with 0.5 nM ^125I labeled MCP-1 (Perkin-Elmer Life Sciences, Inc. Boston, Mass.) in the presence of varying concentrations of either unlabeled MCP-1 (R & D Systems, Minneapolis, Minn.) or test compound for 2 hours at 30° C. in a 96 well plate. Cells were then harvested onto a filter plate, dried, and 20 μL of Microscint 20 was added to each well. Plates were counted in a TopCount NXT, Microplate Scintillation & Luminescence Counter (Perkin-Elmer Life Sciences, Inc. Boston, Mass.). Blank values (buffer only) were subtracted from all values and drug treated values were compared to vehicle treated values. 1 μM cold MCP-1 was used for nonspecific binding.
# Table 1 lists IC50 values for inhibition of MCP-1 binding to CCR2 obtained for test compounds of the invention. Where an IC50 value was not obtained for a particular compound, the percent inhibition is provided at a test concentration of 25 μM.
# T1 sequence (P41597 whole entry): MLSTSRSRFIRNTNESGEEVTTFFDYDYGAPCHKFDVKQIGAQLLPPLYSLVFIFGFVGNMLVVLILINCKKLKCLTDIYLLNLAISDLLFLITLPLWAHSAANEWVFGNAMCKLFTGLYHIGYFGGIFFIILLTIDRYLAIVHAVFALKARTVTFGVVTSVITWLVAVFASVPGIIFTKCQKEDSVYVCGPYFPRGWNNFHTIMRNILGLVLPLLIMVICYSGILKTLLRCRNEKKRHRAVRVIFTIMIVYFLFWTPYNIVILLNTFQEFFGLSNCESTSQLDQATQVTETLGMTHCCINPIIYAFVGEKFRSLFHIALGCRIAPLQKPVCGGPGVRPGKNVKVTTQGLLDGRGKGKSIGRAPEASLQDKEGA
row,SMILES,IC50 [nM]
1,"O=C(CNC(=O)c1cccc(C(F)(F)F)c1)NC1CN(C2CCC3(CC2)OC(=O)c2ccccc23)C1 (single isomer, unassigned) [Example 38a]",920
2,"C#Cc1cnn(C2CCC(N3CC(NC(=O)CNC(=O)c4cccc(C(F)(F)F)c4)C3)CC2)c1 (single isomer, unassigned) [Example 30a, N-({1-[4-(4-Ethynyl-pyrazol-1-yl)-cyclohexyl]-azetidin-3-ylcarbamoyl}-methyl)-3-trifluoromethyl-benzamide]",88
3,"O=C(CNC(=O)c1cccc(C(F)(F)F)c1)NC1CN(C2CCC(n3cc(Br)cnc3=O)CC2)C1 (stereo not drawn) [Example 3, N-({1-[4-(5-Bromo-2-oxo-2H-pyrimidin-1-yl)-cyclohexyl]-azetidin-3-ylcarbamoyl}-methyl)-3-trifluoromethyl-benzamide]",2200
4,"O=C(CNC(=O)c1cccc(C(F)(F)F)c1)NC1CN(C2CCC(n3cc(C(F)(F)F)ccc3=O)CC2)C1 (single isomer, unassigned) [Example 21a, N-({1-[4-(2-Oxo-5-trifluoromethyl-2H-pyridin-1-yl)-cyclohexyl]-azetidin-3-ylcarbamoyl}-methyl)-3-trifluoromethyl-benzamide]",6500
5,"O=C(CNC(=O)c1cccc(C(F)(F)F)c1)NC1CN(C2CCC(n3ccnc3)CC2)C1 (single isomer, unassigned) [Example 31a, N-{[1-(4-Imidazol-1-yl-cyclohexyl)-azetidin-3-ylcarbamoyl]-methyl}-3-trifluoromethyl-benzamide]",340
6,"O=C(CNC(=O)c1cccc(C(F)(F)F)c1)NC1CN(C2CCC(n3ccc(=O)cc3)CC2)C1 (stereo not drawn) [Example 16, N-({1-[4-(4-Oxo-4H-pyridin-1-yl)-cyclohexyl]-azetidin-3-ylcarbamoyl}-methyl)-3-trifluoromethyl-benzamide]",7100
7,"O=C(CNC(=O)c1cccc(C(F)(F)F)c1)NC1CN(C2CCC(n3cc(I)cn3)CC2)C1 (stereo not drawn) [Example 28, N-({1-[4-(4-Iodo-pyrazol-1-yl)-cyclohexyl]-azetidin-3-ylcarbamoyl}-methyl)-3-trifluoromethyl-benzamide]",110

# Next, values leading:
row,IC50 [nM],SMILES
1,280,"Cc1ccc(=O)n(C2CCC(N3CC(NC(=O)CNC(=O)c4cccc(C(F)(F)F)c4)C3)CC2)c1 (stereo not drawn) [Example 11, N-({1-[4-(5-Methyl-2-oxo-2H-pyridin-1-yl)-cyclohexyl]-azetidin-3-ylcarbamoyl}-methyl)-3-trifluoromethyl-benzamide]"
2,410,"O=C(CNC(=O)c1cccc(C(F)(F)F)c1)NC1CN(C2CCC(Oc3ccc4c(c3)OCO4)CC2)C1 (stereo not drawn) [Example 33, N-({1-[4-(Benzo[1,3]dioxol-5-yloxy)-cyclohexyl]-azetidin-3-ylcarbamoyl}-methyl)-3-trifluoromethyl-benzamide]"
3,290,"O=C(CNC(=O)c1cccc(C(F)(F)F)c1)NC1CN(C2CCC(Oc3nsc4ccccc34)CC2)C1 (single isomer, unassigned) [Example 34a, N-({1-[4-(Benzo[d]isothiazol-3-yloxy)-cyclohexyl]-azetidin-3-ylcarbamoyl}-methyl)-3-trifluoromethyl-benzamide]"
4,1500,"O=C(CNC(=O)c1cccc(C(F)(F)F)c1)NC1CN(C2CCC3(CC2)NC(=O)c2ccccc23)C1 (single isomer, unassigned) [Example 39a]"
5,170,"Cc1cnn(C2CCC(N3CC(NC(=O)CNC(=O)c4cccc(C(F)(F)F)c4)C3)CC2)c1 (single isomer, unassigned) [Example 27a, N-({1-[4-(4-Methyl-pyrazol-1-yl)-cyclohexyl]-azetidin-3-ylcarbamoyl}-methyl)-3-trifluoromethyl-benzamide]"
